ChEMBL document CHEMBL1123372, “6,7-Dichloro-1-(3,4,5-trimethoxybenzyl)-1,2,3,4-tetrahydroisoquinoline . A structurally novel beta-adrenergic receptor blocking agent” (J Med Chem, 1986)

Key:
Assay type in all cases: physicochemical
[1] = Compound was evaluated for distribution coefficient; conditions: octanol/water
[2] = Compound was evaluated for pKa by titration of the compounds in 1:2 methyl alcohol and water.; conditions: read-out: pKa app
[3] = Partition coefficient (logP); conditions: octanol/water
[4] = Compound was evaluated for pKa by titration of the compounds in 1:2 methyl alcohol and water; conditions: read-out: pKa app

Compound	logD [1]	pKa [2]	logP [3]	pKa [4]
COc1cc(C[C@@H]2NCCc3cc(O)c(O)cc32)cc(OC)c1OC [TRETOQUINOL]	1.79	7.6	2.23	–
CC(C)NCC(O)c1ccc(Cl)c(Cl)c1 (stereo unspecified) [DICHLOROISOPROTERENOL]	1.26	–	2.55	8.7
